Patent publication US11472791B2 (Incyte Corporation, priority 2019, dated 2022)

These compounds were tested against CDK2/Cyclin E1 (Homo sapiens (Human), UniProt P24941) (assay: CDK2/Cyclin E1 HTRF enzyme activity assay). Settings: 1 mM ATP.
Format: biochemical
Experimental: Assays are conducted in white 384-well polystyrene plates in a final reaction volume of 8 μL. […] HTRF signals are read after 1 hour at room temperature on a PHERAstar FS plate reader (BMG Labtech). Data is analyzed with IDBS XLFit and GraphPad Prism 5.0 software using a three or four parameter dose response curve to determine IC50 for each compound.

IC50, < 50 nM:
Cc1nc(CNC(C)C)ccc1-n1cc(-c2nc(N[C@H]3CCN(S(=O)(=O)c4cn(C)cn4)C[C@H]3C)ncc2C#N)cn1 [Example 278, 4-(1-(6-((Isopropylamino)methyl)-2-methylpyridin-3-yl)-1H-pyrazol-4-yl)-2-(((3R,4S)-3-methyl-1-((1-methyl-1H-imidazol-4-yl)sulfonyl)piperidin-4-yl)amino)pyrimidine-5-carbonitrile]
[2H]C(NC([2H])([2H])[2H])c1ccc(-n2cc(-c3nc(NC4CCN(S(=O)(=O)CC)CC4)ncc3C#N)cn2)c(Cl)c1 (stereo not drawn) [Example 140, 4-(1-(2-Chloro-4-(((methyl-d3)amino)methyl-d)phenyl)-1H-pyrazol-4-yl)-2-((1-(ethylsulfonyl)piperidin-4-yl)amino)pyrimidine-5-carbonitrile]
CS(=O)(=O)N1CCC(Nc2ncc(C#N)c(-c3cnn(-c4ccc(CN[C@@H]5CCC[C@H]5O)cc4Cl)c3)n2)CC1 [Example 186, 4-(1-(2-Chloro-4-((((1R,2R)-2-hydroxycyclopentyl)amino)methyl)phenyl)-1H-pyrazol-4-yl)-2-((1-(methylsulfonyl)piperidin-4-yl)amino)pyrimidine-5-carbonitrile]
N#CCS(=O)(=O)N1CCC(Nc2ncc(C(F)(F)F)c(-c3cnn(C4CCOCC4)c3)n2)CC1 [Example 4, 2-((4-((4-(1-(Tetrahydro-2H-pyran-4-yl)-1H-pyrazol-4-yl)-5-(trifluoromethyl)pyrimidin-2-yl)amino)piperidin-1-yl)sulfonyl)acetonitrile]
CNCc1ccc(-n2cc(-c3nc(N[C@H]4CCN(S(=O)(=O)c5cn(C)cn5)C[C@H]4C)ncc3C#N)cn2)c(C)n1 [Example 272, 2-(((3R,4S)-3-Methyl-1-((1-methyl-1H-imidazol-4-yl)sulfonyl)piperidin-4-yl)amino)-4-(1-(2-methyl-6-((methylamino)methyl)pyridin-3-yl)-1H-pyrazol-4-yl)pyrimidine-5-carbonitrile]
CCS(=O)(=O)N1CCC(Nc2ncc(C#N)c(-c3cnn(-c4ccc(CN[C@H]5CC[C@](C)(O)CC5)cc4Cl)c3)n2)CC1 [Example 176, 4-(1-(2-Chloro-4-((((1r,4r)-4-hydroxy-4-methylcyclohexyl)amino)methyl)phenyl)-1H-pyrazol-4-yl)-2-((1-(ethylsulfonyl)piperidin-4-yl)amino)pyrimidine-5-carbonitrile]
CC(C)(O)Cn1cc(-c2nc(N[C@H]3CCN(S(=O)(=O)C4CC4)C[C@H]3F)ncc2C(F)(F)F)cn1 [Example 57, 1-(4-(2-(((3R,4S)-1-(Cyclopropylsulfonyl)-3-fluoropiperidin-4-yl)amino)-5-(trifluoromethyl)pyrimidin-4-yl)-1H-pyrazol-1-yl)-2-methylpropan-2-ol]
Cc1cc(CN2CCN(C)CC2)ccc1-n1cc(-c2nc(NC3CCN(S(C)(=O)=O)CC3)ncc2C(F)(F)F)cn1 [Example 231, 4-(1-(2-Methyl-4-((4-methylpiperazin-1-yl)methyl)phenyl)-1H-pyrazol-4-yl)-N-(1-(methylsulfonyl)piperidin-4-yl)-5-(trifluoromethyl)pyrimidin-2-amine]
CO[C@H]1C[C@@H](NCc2ccc(-n3cc(-c4nc(NC5CCN(S(C)(=O)=O)CC5)ncc4C#N)cn3)c(Cl)c2)C1 [Example 163, 4-(1-(2-Chloro-4-((((1s,3s)-3-methoxycyclobutyl)amino)methyl)phenyl)-1H-pyrazol-4-yl)-2-((1-(methylsulfonyl)piperidin-4-yl)amino)pyrimidine-5-carbonitrile]
CS(=O)(=O)N1CCC(Nc2ncc(C#N)c(-c3cnn(-c4ccc(CNC5(CO)CC5)cc4Cl)c3)n2)CC1 [Example 159, 4-(1-(2-Chloro-4-(((1-(hydroxymethyl)cyclopropyl)amino)methyl)phenyl)-1H-pyrazol-4-yl)-2-((1-(methylsulfonyl)piperidin-4-yl)amino)pyrimidine-5-carbonitrile]
C[C@@H]1CN(S(=O)(=O)C2CC2)CC[C@@H]1Nc1ncc(C(F)(F)F)c(-c2cnn([C@H]3C[C@@](C)(N)C3)c2)n1 [Example 47, 4-(1-((1s,3r)-3-Amino-3-methylcyclobutyl)-1H-pyrazol-4-yl)-N-((3R,4S)-1-(cyclopropylsulfonyl)-3-methylpiperidin-4-yl)-5-(trifluoromethyl)pyrimidin-2-amine]
Cc1cc(CN2CCN(C)CC2)ccc1-n1cc(-c2nc(NC3CCN(S(=O)(=O)c4cn(C)cn4)CC3)ncc2C(F)(F)F)cn1 [Example 100, N-(1-((1-Methyl-1H-imidazol-4-yl)sulfonyl)piperidin-4-yl)-4-(1-(2-methyl-4-((4-methylpiperazin-1-yl)methyl)phenyl)-1H-pyrazol-4-yl)-5-(trifluoromethyl)pyrimidin-2-amine]
CC(C)(O)Cn1cc(-c2nc(N[C@H]3CCN(S(=O)(=O)CCCN4CCCCC4)C[C@H]3F)ncc2C(F)(F)F)cn1 [Example 204, 1-(4-(2-(((3R,4S)-3-Fluoro-1-((3-(piperidin-1-yl)propyl)sulfonyl)piperidin-4-yl)amino)-5-(trifluoromethyl)pyrimidin-4-yl)-1H-pyrazol-1-yl)-2-methylpropan-2-ol]
CC(C)(O)Cn1cc(-c2nc(NC3CCN(S(=O)(=O)CCCN4CCOCC4)CC3)ncc2C(F)(F)F)cn1 [Example 63, 2-Methyl-1-(4-(2-((1-((3-morpholinopropyl)sulfonyl)piperidin-4-yl)amino)-5-(trifluoromethyl)pyrimidin-4-yl)-1H-pyrazol-1-yl)propan-2-ol]
CC(C)(O)Cn1cc(-c2nc(NC3CCN(S(=O)(=O)CCCO)CC3)ncc2C(F)(F)F)cn1 [Example 92, 3-((4-((4-(1-(2-Hydroxy-2-methylpropyl)-1H-pyrazol-4-yl)-5-(trifluoromethyl)pyrimidin-2-yl)amino)piperidin-1-yl)sulfonyl)propan-1-ol]
CS(=O)(=O)N1CCC(Nc2ncc(C#N)c(-c3cnn(-c4ccc(CNC5CCN(S(C)(=O)=O)C5)cc4Cl)c3)n2)CC1 (racemic) [Example 198, (±)-4-(1-(2-Chloro-4-(((1-(methylsulfonyl)pyrrolidin-3-yl)amino)methyl)phenyl)-1H-pyrazol-4-yl)-2-((1-(methylsulfonyl)piperidin-4-yl)amino)pyrimidine-5-carbonitrile]
CN1CCN(Cc2ccc(-n3cc(-c4nc(NC5CCN(S(=O)(=O)c6cn(C)cn6)CC5)ncc4Cl)cn3)c(C#N)c2)CC1 [Example 244, 2-(4-(5-Chloro-2-((1-((1-methyl-1H-imidazol-4-yl)sulfonyl)piperidin-4-yl)amino)pyrimidin-4-yl)-1H-pyrazol-1-yl)-5-((4-methylpiperazin-1-yl)methyl)benzonitrile]
Cn1cnc(S(=O)(=O)N2CCC(Nc3ncc(C(F)(F)F)c(-c4cnn(CC(F)(F)F)c4)n3)CC2)c1 [Example 25, N-(1-((1-Methyl-1H-imidazol-4-yl)sulfonyl)piperidin-4-yl)-4-(1-(2,2,2-trifluoroethyl)-1H-pyrazol-4-yl)-5-(trifluoromethyl)pyrimidin-2-amine]
[2H]C([2H])([2H])NCc1ccc(-n2cc(-c3nc(N[C@H]4CCN(S(C)(=O)=O)C[C@H]4F)ncc3C#N)cn2)c(Cl)c1 [Example 143, 4-(1-(2-Chloro-4-(((methyl-d3)amino)methyl)phenyl)-1H-pyrazol-4-yl)-2-(((3R,4S)-3-fluoro-1-(methylsulfonyl)piperidin-4-yl)amino)pyrimidine-5-carbonitrile]
CCOC(=O)N1CCC(NCc2ccc(-n3cc(-c4nc(NC5CCN(S(C)(=O)=O)CC5)ncc4C#N)cn3)c(Cl)c2)CC1 [Example 197, Ethyl 4-((3-chloro-4-(4-(5-cyano-2-((1-(methylsulfonyl)piperidin-4-yl)amino)pyrimidin-4-yl)-1H-pyrazol-1-yl)benzyl)amino)piperidine-1-carboxylate]
CS(=O)(=O)N1CCC(Nc2ncc(C#N)c(-c3cnn(-c4ccc(CN[C@H]5C[C@@](C)(O)C5)cc4Cl)c3)n2)CC1 [Example 190, 4-(1-(2-Chloro-4-((((1s,3s)-3-hydroxy-3-methylcyclobutyl)amino)methyl)phenyl)-1H-pyrazol-4-yl)-2-((1-(methylsulfonyl)piperidin-4-yl)amino)pyrimidine-5-carbonitrile]
Cc1nc(CNC(C)(C)C)ccc1-n1cc(-c2nc(NC3CCN(S(C)(=O)=O)CC3)ncc2C#N)cn1 [Example 262, 4-(1-(6-((tert-Butylamino)methyl)-2-methylpyridin-3-yl)-1H-pyrazol-4-yl)-2-((1-(methylsulfonyl)piperidin-4-yl)amino)pyrimidine-5-carbonitrile]
CN1CCN(CCCS(=O)(=O)N2CC[C@H](Nc3ncc(C(F)(F)F)c(-c4cnn(CC(C)(C)O)c4)n3)[C@H](F)C2)CC1=O [Example 212, 4-(3-(((3R,4S)-3-Fluoro-4-((4-(1-(2-hydroxy-2-methylpropyl)-1H-pyrazol-4-yl)-5-(trifluoromethyl)pyrimidin-2-yl)amino)piperidin-1-yl)sulfonyl)propyl)-1-methylpiperazin-2-one]
Cc1nc(CNC(C)(C)C)ccc1-n1cc(-c2nc(NC3CCN(S(=O)(=O)C4CC4)CC3)ncc2C#N)cn1 [Example 277, 4-(1-(6-((tert-Butylamino)methyl)-2-methylpyridin-3-yl)-1H-pyrazol-4-yl)-2-((1-(cyclopropylsulfonyl)piperidin-4-yl)amino)pyrimidine-5-carbonitrile]
